Data: patent US20070093484A1, “3-Substituted 5,6-diaryl-pyrazine-2-carboxamide and -2-sulfonamide derivatives as cb1 modulators” (ASTRAZENECA AB, priority 2003, published 2007)

Target: T1, CB1 receptor (Homo sapiens, UniProt P21554)
T1 construct: expressed in transfected cells
Assay: [35S]-GTPγS binding assay, inhibition of CP55940-stimulated activity in membranes from CB1-transfected cells
Format: biochemical
Conditions: membranes from cells stably transfected with the CB1 gene; EC80 concentration of agonist CP55940; 30° C., 45 min; read-out: IC50 (concentration required to give half maximal inhibition of GTPγS binding)
Text: Compounds of the present invention are active against the receptor product of the CB1 gene. The compounds of the present invention are active at the CB 1 receptor (IC50<1 micromolar). Most preferred compounds have IC50<200 nanomolar. The affinity of the compounds of the invention for central cannabinoid receptors is demonstrable in methods described in Devane et al, Molecular Pharmacology, 1988, 34,605 or those described in WO 01/70700 or EP 656354. Alternatively the assay may be performed as follows.
10 μg of membranes prepared from cells stably transfected with the CB1 gene were suspended in 200 μl of 100 mM NaCl, 5 mM MgCl2, 1 mM EDTA, 50 mM HEPES (pH 7.4), 1 mM DTT, 0.1% BSA and 100 μM GDP. To this was added an EC80 concentration of agonist CP55940), the required concentration of test compound and 0.1 μCi [^35S]-GTPγS. The reaction was allowed to proceed at 30° C. for 45 nun. Samples were then transferred on to GF/B filters using a cell harvester and washed with wash buffer (50 mM Tris (pH 7.4), 5 mM MgCl2, 50 mM NaCl). Filters were then covered with scintilant and counted for the amount of [35]-GTPγS retained by the filter.
Activity is measured in the absence of all ligands (minimum activity) or in the presence of an EC80 concentration of CP55940 (maximum activity). These activities are set as 0% and 100% activity respectively. At various concentrations of novel ligand, activity is calculated as a percentage of the maximum activity and plotted. The data are fitted using the equation y=A+((B−A)/1+((C/x)UD)) and the IC50 value determined as the concentration required to give half maximal inhibition of GTPγS binding under the conditions used.

T1 sequence (P21554 whole entry): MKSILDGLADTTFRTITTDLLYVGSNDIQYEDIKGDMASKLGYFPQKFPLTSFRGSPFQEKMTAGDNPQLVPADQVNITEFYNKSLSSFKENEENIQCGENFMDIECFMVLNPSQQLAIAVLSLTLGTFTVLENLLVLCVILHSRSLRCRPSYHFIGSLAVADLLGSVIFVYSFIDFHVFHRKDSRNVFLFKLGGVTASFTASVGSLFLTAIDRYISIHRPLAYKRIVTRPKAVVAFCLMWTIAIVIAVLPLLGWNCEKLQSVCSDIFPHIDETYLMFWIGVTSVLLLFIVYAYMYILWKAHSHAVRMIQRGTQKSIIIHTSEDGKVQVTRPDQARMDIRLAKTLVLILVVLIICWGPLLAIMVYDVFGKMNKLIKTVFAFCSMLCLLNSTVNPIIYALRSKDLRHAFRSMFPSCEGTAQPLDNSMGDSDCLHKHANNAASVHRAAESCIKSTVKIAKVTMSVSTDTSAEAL

O=C(NN1CCCCC1)c1nc(-c2ccc(Cl)cc2)c(-c2ccc(Cl)cc2)nc1CN1CCOCC1 [Example 27, 5,6-bis(4-chlorophenyl)-3-(morpholin-4-ylmethyl)-N-piperidin-1-ylpyrazine-2-carboxamide]
IC50: 13.5 nM

Cc1ccc(-c2nc(Cn3cnnn3)c(C(=O)NN3CCCCC3)nc2-c2ccc(C)cc2)cc1 [Example 35, 5,6-Bis(4-methylphenyl)-N-piperidin-1-yl-3-(1H-tetrazol-1-ylmethyl)pyrazine-2-carboxamide]
IC50: 1.4 nM

CC(C)(C)NNC(=O)c1nc(-c2ccc(Cl)cc2)c(-c2ccc(Cl)cc2)nc1C(=O)OC(C)(C)C [Example 9]
IC50: 1.8 nM
